According to PMC10184535, “An HR2-Mimicking Sulfonyl-γ-AApeptide Is a Potent Pan-coronavirus Fusion Inhibitor with Strong Blood–Brain Barrier Permeability, Long Half-Life, and Promising Oral Bioavailability” (ACS Central Science, 2023):

Test system: authentic SARS-CoV-2 Delta variant
Settings: 48 h

Compound `CC[C@H](C)[C@H](NC(=O)[C@H](C)NC(=O)[C@H](CCC(=O)O)NC(=O)[C@H](CCC(=O)O)NC(=O)[C@H](CC(C)C)NC(=O)[C@H](CCCCN)NC(=O)[C@H](CCCCN)NC(=O)[C@H](CCSC)NC(=O)[C@H](CCC(=O)O)NC(=O)[C@H](Cc1ccc(O)cc1)NC(=O)[C@H](CCC(=O)O)NC(=O)[C@H](CC(C)C)NC(=O)[C@H](CC(=O)O)NC(=O)[C@H](CC(C)C)NC(=O)[C@H](Cc1ccccc1)NC(=O)[C@@H](NC(=O)[C@@H](NC(=O)[C@H](CC(N)=O)NC(=O)[C@@H](NC(=O)[C@H](CCC(N)=O)NC(=O)[C@H](CC(=O)O)NC(=O)[C@H](CC(C)C)NC(=O)[C@@H](N)CO)[C@@H](C)CC)C(C)C)[C@@H](C)O)C(=O)N[C@@H](CCCCN)C(=O)N[C@@H](CCCCN)C(=O)N[C@@H](CC(C)C)C(=O)N[C@@H](CCC(=O)O)C(=O)N[C@@H](CCC(=O)O)C(=O)N[C@@H](CO)C(=O)N[C@@H](Cc1ccc(O)cc1)C(=O)N[C@H](C(=O)N[C@@H](CC(=O)O)C(=O)N[C@@H](CC(C)C)C(=O)N[C@@H](CCCCN)C(=O)N[C@@H](CCC(=O)O)C(=O)N[C@@H](CC(C)C)C(=O)O)[C@@H](C)CC` [EK1] has an IC50 of 2860 nM.
